In the supplement of paper PMC13380429:
± gives the standard deviation of the averaged measurements.

Legend:
Details in all cases: 72 h
Caco-2 [1] = test: cell viability relative to DMSO; higher = less toxic
Calu-3 [2] = test: as above
HepG2 [3] = test: as above
U2OS [4] = test: as above
Vero E6 [5] = test: as above
Caco-2 [6] = test: relative viability EC50 (midpoint between 100% and the lowest measured viability); higher = less toxic
Calu-3 [7] = test: as above
HepG2 [8] = test: as above
U2OS [9] = test: as above
Vero E6 [10] = test: as above
Caco-2 [11] = test: drug sensitivity score (DSS) for viability; higher = more toxic; extreme values may be limits of the assay
Calu-3 [12] = test: as above
HepG2 [13] = test: as above
U2OS [14] = test: as above
Vero E6 [15] = test: as above

Row | SMILES | cell viability (Caco-2 [1]; 1 nM) | cell viability (Caco-2 [1]; 10 nM) | cell viability (Caco-2 [1]; 100 nM) | cell viability (Caco-2 [1]; 1000 nM) | cell viability (Caco-2 [1]; 10000 nM) | cell viability (Calu-3 [2]; 1 nM) | cell viability (Calu-3 [2]; 10 nM) | cell viability (Calu-3 [2]; 100 nM) | cell viability (Calu-3 [2]; 1000 nM) | cell viability (Calu-3 [2]; 10000 nM) | cell viability (HepG2 [3]; 1 nM) | cell viability (HepG2 [3]; 10 nM) | cell viability (HepG2 [3]; 100 nM) | cell viability (HepG2 [3]; 1000 nM) | cell viability (HepG2 [3]; 10000 nM) | cell viability (U2OS [4]; 1 nM) | cell viability (U2OS [4]; 10 nM) | cell viability (U2OS [4]; 100 nM) | cell viability (U2OS [4]; 1000 nM) | cell viability (U2OS [4]; 10000 nM) | cell viability (Vero E6 [5]; 1 nM) | cell viability (Vero E6 [5]; 10 nM) | cell viability (Vero E6 [5]; 100 nM) | cell viability (Vero E6 [5]; 1000 nM) | cell viability (Vero E6 [5]; 10000 nM) | relative viability EC50 (Caco-2 [6]) | relative viability EC50 (Calu-3 [7]) | relative viability EC50 (HepG2 [8]) | relative viability EC50 (U2OS [9]) | relative viability EC50 (Vero E6 [10]) | drug sensitivity score (Caco-2 [11]) | drug sensitivity score (Calu-3 [12]) | drug sensitivity score (HepG2 [13]) | drug sensitivity score (U2OS [14]) | drug sensitivity score (Vero E6 [15])
1 | CC[C@H](C)[C@H](N)C1=N[C@H](C(=O)N[C@@H](CC(C)C)C(=O)N[C@H](CCC(=O)O)C(=O)N[C@H](C(=O)N[C@H]2CCCCNC(=O)[C@H](CC(N)=O)NC(=O)[C@@H](CC(=O)O)NC(=O)[C@H](Cc3cnc[nH]3)NC(=O)[C@@H](Cc3ccccc3)NC(=O)[C@H]([C@@H](C)CC)NC(=O)[C@@H](CCCN)NC2=O)[C@@H](C)CC)CS1 [bacitracin] | 104% | 104% | 90.4% | 106% | 119% | 103% | 96.4% | 97.7% | 99.5% | 97.8% | 100% | 99% | 99.4% | 103% | 104% | 95.8% | 96.3% | 98.9% | 98.9% | 102% | 102% | 96.2% | 103% | 114% | 110% | > 10 µM | > 10 µM | > 10 µM | > 10 µM | > 10 µM | 0 | 0 | 0 | 0 | 0
2 | O=C([O-])C(O)[C@H](O)[C@@H](O)[C@H](O)[C@H](O)CO.O=C([O-])C(O)[C@H](O)[C@@H](O)[C@H](O)[C@H](O)CO.[Ca+2] (stereo not given in full) [calcium-gluceptate] | 95.7 ± 8% | 93.6 ± 0.71% | 92.9 ± 8.3% | 98.8 ± 2.1% | 103.5 ± 0.14% | 138 ± 44% | 99 ± 6.2% | 101 ± 7.8% | 94.2 ± 20% | 97.4 ± 1.1% | 100 ± 12% | 95.1 ± 23% | 103 ± 6.7% | 100 ± 4% | 100 ± 8% | 98.9% | 89.9% | 101% | 95.3% | 106% | 97.2 ± 7.6% | 85.1 ± 15% | 91.5 ± 2.7% | 82.3 ± 16% | 108.3 ± 0.49% | > 10 µM | > 10 µM | > 10 µM | > 10 µM | > 10 µM | 0 | 0 | 0 | 0 | 0
3 | O=S1(=O)CCN(CN2CCS(=O)(=O)NC2)CN1 [taurolidine] | 102% | 118% | 104% | 96.6% | 87.9% | 99.8% | 95.2% | 97.6% | 92.7% | 94.4% | 106% | 89.8% | 104% | 99.2% | 97.2% | 97.3% | 98.3% | 95.8% | 103% | 98.7% | 114% | 99.7% | 101% | 97.5% | 99.4% | > 10 µM | > 10 µM | > 10 µM | > 10 µM | > 10 µM | 0.2 | 0 | 0 | 0 | 0
4 | CC[n+]1c(-c2ccccc2)c2cc(N)ccc2c2ccc(N)cc21 [homidium] | 95.9% | 93.2% | 87.2% | 55.4% | 4.5% | 103% | 98.9% | 93% | 97.7% | 26.4% | 107% | 101% | 88% | 64.5% | 35.7% | 97.1% | 96% | 98.4% | 87.8% | 39.2% | 92.8% | 100% | 90.5% | 94.5% | 85.3% | 0.984 µM | 2.94 µM | 0.679 µM | 1.74 µM | > 10 µM | 10.7 | 4.4 | 8.1 | 5.3 | 0.1
